# From patent US10125125B2, “N-(heteroaryl)-sulfonamide derivatives useful as S100-inhibitors” (Active Biotech AB, priority 2013, dated 2018)
# Read-outs that look alike come from different tables or passages of the source.
# Experiments:
# [1] = Prodrug assay: plasma concentrations of prodrugs and demethylated parents after cassette dosing, LC-MS; format: in vivo, C57 Bl/6 mice; conditions: C57 Bl/6, mouse, solution, read-out: Parent (demethylated compound) Conc. in plasma after prodrug dosing
# Method: ABR-239313, 239470 and 239749 were administered to seven C57 Bl/6 mice as a cassette formulation either intravenously (4 animals, nominal 1 mg/kg) or per oral (3 animals, nominal 5 mg/kg).
# Blood samples were collected at time points ranging from 5 minutes to 7 hours after administration. After sample withdrawal, plasma was directly separated and frozen until analysis.
# The plasma as well as the formulation samples were analyzed with respect to the concentration of ABR-239313, 239470, 239749 and the corresponding demethylated compounds, i.e. Examples 9, 75 and 73 (ABR-239247, 239417 and 239167) by means of LC-MS.
# The samples were precipitated with acidified acetonitrile and centrifuged prior to injection on LC-MS system (consisting of a triple quadrupole instrument operated in negative MRM ionization mode, and a fast-gradient reversed-phase LC on a Symmetry Shield RP18, 2×30 mm, 3.5 um column).
# In Table 3 the concentrations of each analyte are presented.
# [2] = molecular target: biotinylated human S100A9 : rhRAGE-Fc interaction (Homo sapiens (Human), UniProt P06702); assay: AlphaScreen inhibition assay, Biot-hS100A9:hRAGE-Fc (S100A9-RAGE inhibition assay); format: binding
# Excerpt: FIG. 1 is a schematic representation of an assay of the inhibition of the interaction between biotinylated human S100A9 and human RAGE-Fc using a small molecule S100A9 binder.
# Inhibition Assay, Biot-hS100A9:hRAGE-Fc
# The AlphaScreen (Amplified Luminescent Proximity Homogeneous Assay) contains two types of beads, Alpha Donor beads and Acceptor beads (PerkinElmer). Upon laser excitation at 680 nm a photosensitizer in the Donor bead converts ambient oxygen to a more excited singlet state. The singlet oxygen molecule diffuses (maximum 200 nm) to react with a thioxene derivative in the Acceptor bead and generates a chemiluminescence reaction. Fluorophores in the Acceptor bead subsequently emit light at 520-620 nm which can be detected in the EnVision® Multilabel plate Reader (PerkinElmer). The beads are light sensitive and all work with the beads is performed under subdued light conditions or using green filters on light sources (Roscolux Chroma Green #389, Rosco).
# In the AlphaScreen Inhibition Assay described here, protein A (Staphylococcus aureus) conjugated Acceptor beads are used together with streptavidin coated Donor beads (Perkin Elmer 6760617M). The Acceptor beads are pre-incubated with Fc-tagged recombinant human RAGE (rhRAGE-Fc) allowing binding of the rhRAGE-Fc to protein A on the beads. Biotinylated human S100A9 (biot-hS100A9) is pre-incubated with the low molecular test compounds. The pre-mixes are then added to the wells of a micro-plate and incubated allowing interaction between biot-hS100A9 and rhRAGE-Fc. Subsequent addition of streptavidin coated Donor beads causes binding of the streptavidin to the biotinylated hS100A9. After an additional incubation the signal is measured.
# Without inhibitory compounds, the interaction of biot-hS100A9 to rhRAGE-Fc will bring the Acceptor and Donor beads in close proximity thus generating a high signal. With an inhibitor present the complex will not form resulting in a decreased signal.
# Chemicals and reagents. • AlphaScreen® General IgG (Protein A) Detection Kit, (PerkinElmer 6760617M) • HBS-P buffer (GE Healthcare, BR-1003-68) • HBS-N buffer (GE Healthcare, BR-1003-69) • CaCl2 in HBS-P • ZnCl2 in Milli-Q water • DMSO • Biotinylated hS100A9, (biotinylated via cystein by EZ-link Iodoacetyl-PEG2-Biotin reagent (Pierce no. 21334), in HBS-N • rhRAGE-Fc (R&D Systems, 1145-RG-50), in HBS-P
# The AlphaScreen assay method is used for screening of the inhibitory effect of different compound samples at fixed concentrations or for IC50 determination by varying the compound concentrations. Samples of test compounds and references are prepared from solutions in DMSO. Relevant reference inhibitors and DMSO are used as controls for defined inhibition and non-inhibition, respectively in the assay. The percent inhibition in assay for test compounds and references are calculated by comparing their obtained assay signals with the signal values for the control with only DMSO (no compound).
# Assay concentration of biotinylated hS100A9 and rhRAGE-Fc are batch dependent, and are determined and defined by separate cross-titration experiments using this AlphaScreen inhibition method to verify the optimal setup regarding signal strength and achievement of a defined inhibition with relevant reference compounds. The Final assay concentrations of Acceptor and Donor beads are 20 μg/mL.
# Experimental Set Up for Screening, Preparation of Solutions and Beads.
# Assay buffer is prepared by adding CaCl2 and ZnCl2 to HBS-P and is used freshly prepared in the experiment.
# Biotin-hS100A9 solution for the experiment is prepared by dilution of appropriate amount of stock solution biot-hS100A9 in assay buffer (with CaCl2 and ZnCl2) and incubation in room temperature for 30 minutes.
# rhRAGE-Fc solution for the experiment is prepared by dilution appropriate amount of rhRAGE-Fc stock in assay buffer.
# Protein A Acceptor beads are diluted in assay buffer and are added to an equal volume of the prepared diluted rhRAGE-Fc solution.
# [3] = intravenous, i.v. cassette of prodrugs, nominal 1 mg/kg
# [4] = oral, p.o. cassette of prodrugs, nominal 5 mg/kg
# biotinylated human S100A9 : rhRAGE-Fc interaction, sequence (P06702 whole entry): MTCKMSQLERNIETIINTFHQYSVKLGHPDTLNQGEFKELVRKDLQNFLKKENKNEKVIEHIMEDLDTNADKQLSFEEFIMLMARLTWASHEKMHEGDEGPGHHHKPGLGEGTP
"concentration at 0.083 h [1, 3]","concentration at 0.5 h [1, 3]","concentration at 1 h [1, 3]","concentration at 2 h [1, 3]","concentration at 4 h [1, 3]","concentration at 7 h [1, 3]","concentration at 0.5 h [1, 4]","concentration at 1 h [1, 4]","concentration at 2 h [1, 4]","concentration at 4 h [1, 4]","concentration at 7 h [1, 4]",IC50 [2],Structure (SMILES)
89 nM,200 nM,190 nM,210 nM,180 nM,130 nM,460 nM,490 nM,690 nM,610 nM,780 nM,1200 nM,"O=S(=O)(Nc1cnc(Cl)cc1O)c1cc(Cl)sc1Cl [Example 73, 2,5-dichloro-N-(6-chloro-4-hydroxypyridin-3-yl)thiophene-3-sulfonamide]"
120 nM,320 nM,320 nM,320 nM,210 nM,200 nM,570 nM,860 nM,800 nM,630 nM,1100 nM,250 nM,"O=S(=O)(Cc1ccc(Cl)c(Cl)c1)Nc1ncc(Br)nc1O [Example 75, N-(5-bromo-3-hydroxypyrazin-2-yl)-1-(3,4-dichlorophenyl)methanesulfonamide]"
